Reference: paper PMC11140455 (RSC Advances, 2024)
Values joined by “and” are separate entries in the source; they are usually repeats but may differ in a detail not shown here. Identical values can stand only once. Like-named read-outs stand apart in the source and are kept apart here.

Tests used:
[1] = test system: H2228 EML4-ALK cancer cell line; assay: Antiproliferative activity, MTT assay, H2228 monolayer; assay type: cell-based, human; settings: read-out: H2228 IC50 EML4-ALK
[2] = test system: BaF3/NMP-ALK cancer cell line; assay: Antiproliferative activity, CCK-8 assay, BaF3/ALK cells; assay type: cell-based, mouse; settings: read-out: BaF3/NMP-ALK IC50
H2228 xenograft = assay: In vivo anti-tumor evaluation, H2228 xenograft in nude mice; settings: 20 mg kg^-1, oral, 14 days
EA.hy926 cells = assay: Toxicity assay on human normal cells, EA.hy926; assay type: cell-based; settings: for IC50: Homo sapiens
HK-2 cells = assay: Toxicity assay on human normal cells, HK-2; assay type: cell-based
L02 cells = assay: Toxicity assay on human normal cells, L02; assay type: cell-based; settings: L02, read-out: IC50 L02
[3] = MTT, 48 h, mean ± SD, at least three experiments
[4] = CCK-8, 48 h, at least three experiments

Molecule	IC50 [1, 3]	IC50 [2, 4]	also measured
4-Chloro-N2-(2-ethoxy-5-methyl-4-(1-methylpiperidin-4-yl)phenyl)-N5-(2-(ethylsulfinyl)-4-fluorophenyl)pyrimidine-2,5-diamine [Compound 18g]	33 ± 7 nM	29 ± 12 nM	
4-Chloro-N5-(2-(ethylsulfinyl)-4-fluorophenyl)-N2-(2-isopropoxy-5-methyl-4-(1-methylpiperidin-4-yl)phenyl)pyrimidine-2,5-diamine [Compound 18L]	31 ± 10 nM	28 ± 8 nM	
4-Chloro-N5-(2-(ethylsulfinyl)-4-fluorophenyl)-N2-(2-methoxy-5-methyl-4-(1-methylpiperidin-4-yl)phenyl)pyrimidine-2,5-diamine [Compound 18f]	37 ± 11 nM	31 ± 13 nM	
4-Chloro-N5-(2-(ethylsulfinyl)-4-fluorophenyl)-N2-(2-methoxy-5-methyl-4-(piperidin-4-yl)phenyl)pyrimidine-2,5-diamine [Compound 18h]	58 ± 16 nM	47 ± 15 nM	
4-Chloro-N5-(2-(ethylsulfinyl)phenyl)-N2-(2-methoxy-5-methyl-4-(1-methylpiperidin-4-yl)phenyl)pyrimidine-2,5-diamine [Compound 18e]	44 ± 12 nM	33 ± 10 nM	
Cc1cc(Nc2ncc(Cl)c(Nc3ccccc3S(=O)(=O)C(C)C)n2)c(OC(C)C)cc1C1CCNCC1 [Ceritinib, ceritinib]			IC50 ([1]; Homo sapiens, NCI-H2228, 48 h): 25 ± 10 nM; IC50 ([2]; Mus musculus, BaF3, 48 h): 18 ± 1 nM; Tumor growth inhibitory rate (TGI) (H2228 xenograft): 72.8% and 72.0%; Tumor volume changes (inhibitory effects) (H2228 xenograft): 131.00 mm^3; EA.hy926 cell morphology (EA.hy926 cells; 48 h, 1 μM (Fig. 9)): abnormal morphology changes; IC50 (EA.hy926 cells; EA.hy 926, read-out: IC50 EA.hy926 (active)): 3420 ± 560 nM; IC50 (EA.hy926 cells; EA.hy 926, read-out: IC50 EA.hy926 (quiescent)): 2440 ± 340 nM; HK-2 cell morphology (HK-2 cells; 48 h, 1 μM (Fig. 9)): abnormal morphology changes; IC50 (HK-2 cells; Homo sapiens, HK-2, read-out: IC50 HK-2): 1440 ± 250 nM; IC50 (L02 cells): 3420 ± 560 nM

More lines, main results first:

IC50 [1, 3]	IC50 [2, 4]	Molecule	also measured
63 ± 8 nM	56 ± 4 nM	4-Chloro-N5-(2-(ethylsulfinyl)-4-fluorophenyl)-N2-(2-isopropoxy-5-methyl-4-(piperidin-4-yl)phenyl)pyrimidine-2,5-diamine [Compound 18j]	
57 ± 6 nM	24 ± 5 nM	4-Chloro-N5-(2-(ethylsulfinyl)phenyl)-N2-(2-methoxy-4-(1-methylpiperidin-4-yl)phenyl)pyrimidine-2,5-diamine [Compound 18k]	
81 ± 28 nM	77 ± 15 nM	4-Chloro-N5-(4-chloro-2-(ethylsulfinyl)phenyl)-N2-(2-isopropoxy-5-methyl-4-(1-methylpiperidin-4-yl)phenyl)pyrimidine-2,5-diamine [Compound 18i]	
